Experiments:
human macrophages = test: Real-time analysis of phagocytosis of E. coli by human macrophages; format: cell-based; conditions: 1 nM each; for rank of increase in macrophage phagocytosis among individual SPMs: individually
Description: Human peripheral blood mononuclear cells from deidentified healthy human volunteers from the Children's Hospital Boston blood bank were isolated by density-gradient, Ficoll-Histopaque isolation, which was followed by monocyte purification. The monocytes were then cultured for 7 days in RPMI 1640, 10% fetal calf serum (FCS) and were differentiated into macrophages through culturing with granulocyte-macrophage colony-stimulating factor (GM-CSF, 20 ng/ml).
Real-time imaging of human macrophages was performed by plating the cells (50,000 cells/well in PBS++) onto 8-well chamber slides. The chamber slides were kept in a Stage Top Incubation system for microscopes equipped with a built-in digital gas mixer and temperature regulator (TOKAI HIT model INUF-K14). A panel of SPMs (RvE1, RvD1, RvD5, LXB4, and MaR1; 1 nM each or in combination) was added to the macrophages for 15 min, which was followed by the addition of BacLight Green-labeled E. coli (at an E. coli:phagocyte ratio of 50:1). Images were then acquired every 10 min for 3 hours at 37 °C with a Keyence BZ-9000 (BIOREVO) inverted fluorescence phase-contrast microscope (20× objective) equipped with a monochrome-color switching camera using BZ-II Viewer software (Keyence). Mean fluorescence intensity was quantified with a BZ-II Analyzer.

[1] = test system: CREB and S6 in neutrophils and monocytes; test: Single-cell analysis of intracellular signaling in whole blood leukocytes; format: cell-based, human

## CCCCC[C@H](O)[C@H](O)/C=C/C=C/C=C\C=C\[C@@H](O)CCCC(=O)O [LXB4, lipoxin B4: (5S, 14R, 15S-trihydroxy-eicosa-6E, 8Z, 10E, 12E-tetraenoic acid)]
Human macrophages
  extent of phagocytosis of E. coli by human macrophages, individual SPMs: statistically significantly enhanced
  rank of increase in macrophage phagocytosis among individual SPMs: greatest increases
[1]
  intracellular signaling in neutrophils and monocytes: activated CREB and S6

## CC/C=C\C/C=C\C[C@H](O)\C=C/C=C/C=C/[C@H](O)C/C=C\CCC(=O)O [Maresin 1, maresin 1 (7R, 14S-dihydroxy-docosa-4Z, 8E, 10E, 12Z, 16Z, 19Z-hexaenoic acid)]
Human macrophages
  extent of phagocytosis of E. coli by human macrophages, individual SPMs: statistically significantly enhanced
[1]
  intracellular signaling in neutrophils and monocytes: activated CREB and S6

## CC/C=C\C[C@H](O)/C=C/C=C\C=C\C=C\[C@@H](O)[C@@H](O)C/C=C\CCC(=O)O [RvD1, Resolvin D1 (7S, 8R, 17S-trihydroxy-docosa-4Z, 9E, 11E, 13Z, 15E, 19Z-hexaenoic acid)]
Human macrophages
  extent of phagocytosis of E. coli by human macrophages, individual SPMs: statistically significantly enhanced
[1]
  intracellular signaling in neutrophils and monocytes: activated CREB and S6

## CC/C=C\C[C@H](O)/C=C/C=C\C/C=C\C=C\[C@@H](O)C/C=C\CCC(=O)O [RvD5, Resolvin D5 (7S, 17S-dihydroxy-docosa-4Z, 8E, 10Z, 13Z, 15E, 19Z-hexaenoic acid)]
[1]
  intracellular signaling in neutrophils and monocytes: activated CREB and S6

## CC[C@@H](O)/C=C/C=C\C[C@@H](O)/C=C/C=C/C=C\[C@@H](O)CCCC(=O)O [RvE1, Resolvin E1 (5S, 12R, 18R-trihydroxy-eicosa-6Z, 8E, 10E, 14Z, 16E-pentaenoic acid)]
Human macrophages
  extent of phagocytosis of E. coli by human macrophages, individual SPMs: statistically significantly enhanced
  rank of increase in macrophage phagocytosis among individual SPMs: greatest increases
[1]
  intracellular signaling in neutrophils and monocytes: activated CREB and S6
